Here are results for 1 compound from US20260199371A1, “COORDINATION COMPOUND, COMPOSITIONS, AND USES THEREOF FOR TREATING CANCERS” (HUEIYUAN BIOTECH LLC, priority 2023, published 2026).

Assay [1] deals with A431 cells. The following applies: 1-1000 μg/ml, 48 hours. The method, then: Human epidermoid carcinoma A431 cells (commercially available from ATCC under the number CRL-1555) were cultured in DMEM supplemented with 10% FBS.
Assay [2] has as its system EMT markers in LoVo-OXAR cells. Conditions: western blot, 24 hours. The source says: (§1) Vimentin and E-cadherin are molecular markers linked to tumor progression through their roles in EMT, which is a pathological process contributing to migration and invasion of cancer cells and tumor progression. Vimentin is a key component of intermediate filaments, which helps maintain cellular integrity and resistance to stress. E-cadherin plays a role in maintaining epithelial phenotypes by mediating contact inhibition when cells proliferate and reach confluence. To further investigate the influence of the compound (II) on EMT marker expression, western blotting, immunofluorescence detection, and quantitative real-time reverse transcription polymerase chain reaction (qRT-PCR) were performed in LoVo-parental and LoVo-OXAR cells treated with various doses of the compound (II) for 24 hours.
(§2) The cells after the indicated treatments were harvested and subject to western blot analysis using primary antibodies against vimentin, E-cadherin, and GAPDH (San-ta Cruz Biotechnology Inc. Santa Cruz, California, USA). GAPDH was used as an internal control.

Assay [3] deals with EMT markers in LoVo-parental cells. Conditions: western blot, 24 hours.
Source text: as §1, §2
(In general: A western blot detects proteins with antibodies after separation by electrophoresis.)

Assay [4] has as its system EMT markers in 143B cells. Conditions: western blot. As for the experimental part:
(§3) Transwell migration assay, as described in Example 5.1, was performed on 143B cells to investigate how the compound (II) would affect the migration ability of bone cancer cells.

Assay [5] concerns 143B cells. The following applies: Transwell migration. The method, then:
as §3

The test system of assay [6] is HA22T-HDACiR cells. Conditions: 0-1250 μg/ml, 24 hours.
The test system of assay [7] is CP70 cells. The following applies: 0-1600 μg/ml, 24 hours.
Assay [8] concerns LoVo-parental cells. The following applies: single agent: compound (II) 500 μg/ml or oxaliplatin 50 μg/ml, 72 hours.

Turning to `CC(=O)[O-].CC(=O)[O-].CC(=O)[O-].CC(=O)[O-].CC(=O)[O-].CC(=O)[O-].O.O.O.O.O=[N+]([O-])[O-].[Cr+3].[Fe+3].[Fe+3].[OH-].[OH-]` [compound (II)], the “viability of A431 cells” value in assay [1] is given as “reduced the viability of the A431 cells in a dose-dependent manner”. In addition, in assay [2], the “protein expression of E-cadherin” value is recorded as “increased” and the “protein expression of vimentin” value was “significantly reduced”. In addition, in assay [3], the “protein expression of E-cadherin” value was “increased” and the “protein expression of vimentin” value is reported as “significantly reduced”. In assay [4], the E-cadherin expression entry is given as “increasing” and the vimentin expression entry is reported as “significantly decreased”. For the same compound, the “crawling (migration) of 143B cells” value in assay [5] is listed as “inhibited by the compound (II) in a dose-dependent manner”. For the same compound, the “viability of HA22T-HDACiR cells” value in assay [6] was “reduced the viability of both liver cancer cells in a dose-dependent manner”. In addition, in assay [7], the “viability of CP70 cells” value is given as “reduced the viability of the ovarian cancer cells in a dose-dependent manner”. In addition, the “invasion rate of LoVo-parental cells” value in assay [8] is reported as “significantly decreased”.
